Literature values in patent US20030181501A1 (priority 2001, published 2003).

Conditions: Dionne (1999)

Solubility in water: extremely low solubility in water
Structure (SMILES): Cc1onc(-c2ccccc2)c1-c1ccc(S(N)(=O)=O)cc1 [Valdecoxib, 4-(5-methyl-3-phenyl-4-isoxazolyl)benzenesulfonamide]
